Measured values taken from patent publication US4064128A, “N,[3-(4'-fluorobenzoyl)propyl]-N2 -(2'-chloro-5'-methylphenoxy)ethyl]p i” (Kali-Chemie Aktiengesellschaft, priority 1971, dated 1977).
“Also recorded” adds a separate entry of the source.

Legend:
[1] = Acute oral toxicity (LD50 p.o.); type: in vivo; settings: for toxicity (in words): compared with the other tested compounds; for LD50 at 168 h: mouse, in vivo, po, mice, single dose, 7 days survival period
Method: Test 1. Acute oral toxicity
The acute oral toxicity (LD50 p.o.) was determined by peroral administration of a single dose of the compound to fasting white male mice.
The lethal dose in terms of milligrams of the compound per kilogram of body weight of the tested animals was computed in accordance with the method described by J. P. Litchfeld and F. Wilcoxon in Journal of Pharmacology and Experimental Therapeutics, vol. 96, page 99 (1949).
The doses that are referred to herein were all computed in accordance with the said method. The results in this test were based upon a survival period of 7 days.

[2] = system: hexobarbital sleep duration; assay: Sleep prolongation test (hexobarbital); type: in vivo, female mice; settings: for ED (4-fold prolongation): Mus musculus, po, dose p.o. 30 min before 65 mg/kg i.v. hexobarbital, mice, read-out: Fourfold prolongation of hexobarbital sleep duration; for sedative effect (in words), sleep prolongation and aggression test: prolongation of hexobarbital sleep duration and aggression test
Method: Test 2. Sleep prolongation test
In this test a dose of the test compound is first administered perorally to female mice. After an interval of 30 minutes a dose of 65 milligrams of hexobarbital per kilogram of body weight of the animal is administered intravenously to the mice. The length of the period after administration of the hexabarbital during which the mouse remains sleeping on its side before turning over onto its abdomen, is then noted.

phenyl quinone writhing = assay: Analgesic effect, Writhing test (phenyl quinone); type: in vivo, male albino mice (NMRI strain); settings: for ED (effect equal to amidopyrine 100 mg/kg): Mus musculus, oral dose equivalent to 100 mg/kg oral amidopyrine, phenyl quinone 1.5 mg/kg, read-out: Writhing-test (dose producing same effect as amidopyrine)
Method: The analygesic effect of the substance was determined by the Writhing test. The substances to be tested were administered to male albino mice (NMRI strain) in accordance with the method described by E. Sigmund, R. Cadmus and G. Lu in Proc. Soc. exp. […] After 30 minutes, 1.5 mg. of phenyl quinone per kg. of body weight were administered to the test animals through the abdominal cavity. Amidopyrine was orally administered as comparison substance in a dose of 100 mg/kg. The figures set out in Table 2 indicate the oral doses of the compounds according to the invention in mg/kg which produce the same effect as the dose of the comparison substance.

[3] = system: aggression induced by clonidine; assay: Inhibition of aggression induced by clonidine (Morpurgo); type: in vivo; settings: Mus musculus, ip, 30 min before 46.4 mg/kg i.p. clonidine, mice; read-out: Aggression test (Morpurgo), ED50
Method: Test 3. Inhibition of aggression induced by clonidine
This test was described by C. Morpurgo in European Journal of Pharmacology,vol. […] In this test 12 mice are separated into pairs and each mouse is injected intraperitoneally with a dose of the test compound. […] Clonidine at this dosage level produces an aggressive behaviour in the mice which expresses itself in violent bouts of fighting and biting. The mice are observed and their behaviour scored in accordance with a point system. The mice are observed during a period of 30 minutes and each pair of mice scores 2 points if, during any 10 minute interval, two or more encounters or bouts had occurred. Six pairs of mice accordingly cannot score more than a total of 36 points during the 30 minute period, which is rated 100%.

ileum portion = assay: Antihistamine action, Magnus procedure; set-up: species or system Pirbright guinea pigs; settings: Cavia porcellus, guinea pig ileum, read-out: Antihistamine action ED50
Description: Test 5. Antihistamine action
The ED50 has been given in mol/1.

[4] = listed as compound of the invention

## Cc1cc(C)cc(OCCN2CCN(CCCC(=O)c3ccc(F)cc3)CC2)c1 [3,5-dimethylphenyl]
[1]
  toxicity (in words): even a higher toxicity
  LD50 at 168 h: 297 mg/kg
[2]
  ED (4-fold prolongation): 68 mg/kg
  sedative effect (in words), sleep prolongation and aggression test: less satisfactory sedative effect
Phenyl quinone writhing
  ED (effect equal to amidopyrine 100 mg/kg): 6.9 mg/kg

## Cc1ccc(C)c(OCCN2CCN(CCCC(=O)c3ccc(F)cc3)CC2)c1 [2,5-dimethylphenyl]
[1]
  LD50 at 168 h: 1240 mg/kg
[2]
  ED (4-fold prolongation): 100 mg/kg
Phenyl quinone writhing
  ED (effect equal to amidopyrine 100 mg/kg): 17 mg/kg

## COc1ccc(CN2CCN(CCCC(=O)c3ccc(F)cc3)CC2)cc1 [methoxyphenyl, no O-bridge, reference compound]
[1]
  LD50 at 168 h: 431 mg/kg
[2]
  ED (4-fold prolongation): 33.9 mg/kg
[3]
  ED50: 4.7 mg/kg
Phenyl quinone writhing
  ED (effect equal to amidopyrine 100 mg/kg): 62 mg/kg
Ileum portion
  IC50: 150 nM

## O=C(CCCN1CCN(CCOc2ccc(Cl)cc2)CC1)c1ccc(F)cc1 [4-chlorophenyl, reference compound]
[1]
  LD50 at 168 h: 336 mg/kg
[2]
  ED (4-fold prolongation): 21.5 mg/kg
[3]
  ED50: 6 mg/kg
Phenyl quinone writhing
  ED (effect equal to amidopyrine 100 mg/kg): 5.5 mg/kg
Ileum portion
  IC50: 9 nM

## O=C(CCCN1CCN(CCOc2ccc([N+](=O)[O-])cc2)CC1)c1ccc(F)cc1 [4-nitrophenyl]
[1]
  LD50 at 168 h: 215 mg/kg
[2]
  ED (4-fold prolongation): 8 mg/kg
[3]
  ED50: 0.7 mg/kg
Phenyl quinone writhing
  ED (effect equal to amidopyrine 100 mg/kg): 1.8 mg/kg
Ileum portion
  IC50: 4 nM

## O=C(CCCN1CCN(Cc2ccc(F)cc2)CC1)c1ccc(F)cc1 [fluorobenzyl, no O-bridge, reference compound]
[1]
  LD50 at 168 h: 431 mg/kg
[2]
  ED (4-fold prolongation): 18.5 mg/kg
[3]
  ED50: 7.6 mg/kg
Phenyl quinone writhing
  ED (effect equal to amidopyrine 100 mg/kg): 49.5 mg/kg
Ileum portion
  IC50: 120 nM

## Cc1cccc(OCCN2CCN(CCCC(=O)c3ccc(F)cc3)CC2)c1C [2,3-dimethylphenyl]
[1]
  LD50 at 168 h: 1040 mg/kg
[2]
  ED (4-fold prolongation): 120 mg/kg
[3]
  ED50: 4.6 mg/kg
Phenyl quinone writhing
  ED (effect equal to amidopyrine 100 mg/kg): 23 mg/kg

## O=C(CCCN1CCN(CCOc2c(Cl)cccc2Cl)CC1)c1ccc(F)cc1 [2,6-dichlorophenyl, reference compound]
[1]
  LD50 at 168 h: 1020 mg/kg
[2]
  ED (4-fold prolongation): 117 mg/kg
[3]
  ED50: 7.4 mg/kg

## Cc1ccc(Cl)c(OCCN2CCN(CCCC(=O)c3ccc(F)cc3)CC2)c1 [2-chloro-5-methylphenyl]
[1]; [4]
  toxicity (in words): very substantially lower than that of 4-nitrophenyl; also recorded: low toxicity
[1]
  LD50 at 168 h: 464 mg/kg
[2]
  ED (4-fold prolongation): 7 mg/kg
  sedative effect (in words), sleep prolongation and aggression test: substantially better results in regard to sedative effects
[2]; [4]
  sedative effect (in words), sleep prolongation and aggression test: the same or better than that of the 4-nitrophenyl compound
[3]
  ED50: 0.35 mg/kg
Phenyl quinone writhing
  ED (effect equal to amidopyrine 100 mg/kg): 6 mg/kg
Phenyl quinone writhing; Writhing test
  analgesic effect (in words): good analgesic effects
Ileum portion
  IC50: 7 nM

## Cc1cc(Cl)ccc1OCCN1CCN(CCCC(=O)c2ccc(F)cc2)CC1 [4-chloro-2-methylphenyl]
[1]
  LD50 at 168 h: 1000 mg/kg
[2]
  ED (4-fold prolongation): 100 mg/kg
[3]
  ED50: 2.5 mg/kg
Phenyl quinone writhing
  ED (effect equal to amidopyrine 100 mg/kg): 68.1 mg/kg
Ileum portion
  IC50: 17 nM
